The values that follow come from ChEMBL document CHEMBL1146248, “Cytotoxic small molecule dimers and their inhibitory activity against human breast cancer cells” (Bioorg Med Chem Lett, 2007).

The structures appear in SMILES notation.

The subject of one experiment is MCF7. The experiment can be described thus: Antiproliferative activity against human estrogen receptor positive MCF7 cells after 72 hrs. Type of experiment: functional, cell-based. The note with it: MCF7, 72 h.
The next experiment relates to SK-BR-3. The experiment can be described thus: Antiproliferative activity against human estrogen receptor negative SKBr3 cells overexpressing Her2 after 72 hrs. Type of experiment: functional, cell-based. The conditions noted are these: SK-BR-3, 72 h.

On to `O=C(Nc1cc(Cl)cc(Cl)c1)c1ccnc(C(=O)Nc2cc(Cl)cc(Cl)c2)c1`, for which the values for the IC50 with MCF7 and in the experiment on SK-BR-3 were 4.2 µM and 10.5 µM, respectively.

In general, IC50 refers to the concentration at which inhibition is half-maximal. The low end stands for higher potency, the high end for lower potency.
